In patent US20210161868A1, “ANTI-INFLAMMATORY THERAPY IN ARRHYTHMOGENIC CARDIOMYOPATHY (ACM)” (Beth Israel Deaconess Medical Center, Inc., priority 2018, published 2021):

System: hearts of Dsg2^mut/mut mice
Experiment: Cytokine arrays in mouse hearts
Assay type: in vivo
Protocol: Three cohorts of mice at 8 weeks of age were anesthetized and implanted with subcutaneous osmotic mini-pumps (Alzet, Model 1004). These included: 1) Dsg2^mut/mut mice with pumps containing 50 μg/μL Bay11-7082 in a vehicle of 65% DMSO, 15% ethanol, and 20% saline; 2) Dsg2^mut/mut mice with pumps containing an equivalent volume of vehicle; and 3) wildtype mice with pumps containing vehicle. Mice in cohort 1 received 5 mg/kg/day of Bay11-7082 by continuous infusion; those in cohorts 2 and 3 received an equivalent volume of vehicle each day for 4 weeks. At 12 weeks of age, mice were re-anesthetized and new Alzet pumps were implanted for an additional 4 weeks of treatment.
Myocardium from mice was lyzed in RIPA buffer and cardiac myocytes from patient hiPSCs were lysed in TRIzol, and protein in lysates was quantified by standard BCA protein assay. Mouse (R&D Systems, Cat. No. ARY028) and Human (R&D Systems, Cat. No. ARY022B) Proteome Profiler XL Cytokine Arrays were blocked at room temperature for 1 hour before being incubated overnight at 4° C. with 200 μg of myocardial protein in blocking buffer supplied by manufacturer. Additional arrays were incubated overnight at 4° C. with 200 μl of hiPSC-cardiac myocyte culture medium according to the manufacturer's protocol for cell supernatants. Following overnight incubation, arrays were washed four times (10 minutes/wash), incubated at room temperature for 1 hour with Antibody Detection Cocktail, washed an additional four times (10 minutes/wash), then incubated with 1:2,000 Streptavidin-HRP in blocking buffer for 30 minutes at room temperature. Arrays were then washed four times and chemiluminescence was performed using the Chemi Reagent Mix included in the assay kits.
Data are presented as mean±SEM. Specific n-values are inset within each figure legend or table. P<0.05 was deemed statistically significant. As appropriate, associations between continuous dependent variables were tested using Student's paired/unpaired t-tests (binary independent variables) or one-way ANOVA (two or more variables). In the in vivo studies involving Dsg2^mut/mut mice, correlations between (i) ejection fraction and the amounts of myocardial fibrosis and apoptosis, (ii) cytokine expression levels and ejection fraction, and (iii) the levels of each individual cytokine against all other cytokines were made using Pearson's r analysis. Changes in cytokine levels in WT vs. Dsg2^mut/mut and/or untreated vs. Bay 11-7082-treated Dsg2^mut/mut mice were analyzed by two-way ANOVA with Tukey's post-hoc testing. The levels of any cytokines showing a significant change were then correlated with ejection fraction in each animal using Pearson's r analysis. In addition, the levels of all cytokines (n=111) were analyzed in a Pearson's correlation matrix table to correlate the expression level of each individual cytokine with all other cytokines.

[1] = Dsg2^mut/mut (Bay11-7082) vs Dsg2^mut/mut
[2] = Dsg2^mut/mut (Bay11-7082) vs WT
[3] = Dsg2^mut/mut mice with pumps containing 50 μg/μL Bay11-7082

Cc1ccc(S(=O)(=O)/C=C/C#N)cc1 [Bay 11-7082]
4-6: HGF expression [2] | MMP-2 expression [2] | Osteopontin (OPN) expression [2]
>20: M-CSF expression [2]
1-2: Angiopoietin-2 expression [1] | CD14 expression [1] | LDL R expression [1] | M-CSF expression [1] | MMP-2 expression [1] | MMP-3 expression [1] | Proprotein Convertase 9/PCSK9 expression [1] | TIM-1/KIM-1/HAVCR expression [1] | Thrombopoeitin expression [1] | VCAM-1/CD106 expression [1] | VEGF expression [1] | DPPIV/CD26 expression [2] | EGF expression [2] | G-CSF expression [2] | IFN-y expression [2] | IGFBP-1 expression [2] | IL-1ra (IL-1F3) expression [2] | IL-12 p40 expression [2] | IL-13 expression [2] | IL-28A/B expression [2] | LDL R expression [2] | Leptin expression [2] | PDGF-BB expression [2] | Pentraxin 2/SAP expression [2] | RBP4 expression [2] | TNF-α expression [2] | sICAM-1 (CD54) expression [2]
>10: LIX expression [2] | P-Selectin/CD62P expression [2]
<1: Adiponectin expression [1] | Amphiregulin expression [1] | Angiopoietin-1 expression [1] | Angiopoietin-like 3 expression [1] | BAFF/BLyS/TNFSF13B expression [1] | C1qR1/CD93 expression [1] | C-Reactive Protein/CRP expression [1] | CCL2/JE/MCP-1 expression [1] | CCL3/CCL4/MIP-1a/B expression [1] | CCL5/RANTES expression [1] | CCL6/C10 expression [1] | CCL17/TARC expression [1] | CCL19/MIP-3B expression [1] | CCL20/MIP-3a expression [1] | CCL21/6Ckine expression [1] | CCL22/MDC expression [1] | CD40/TNFRSF5 expression [1] | CD160 expression [1] | CX3CL1/Fractalkine expression [1] | CXCL9/MIG expression [1] | CXCL13/BLC/BCA-1 expression [1] | CXCL16 expression [1] | Chemerin expression [1] | Chitinase 3-like 1 expression [1] | Coagulation Factor III/Tissue Factor expression [1] | Complement Component C5/C5a expression [1] | Complement Factor D expression [1] | Cystatin C expression [1] | DKK-1 expression [1] | DPPIV/CD26 expression [1] | E-Selectin/CD62E expression [1] | EGF expression [1] | Endoglin/CD105 expression [1] | Endostatin expression [1] | Eotaxin (CCL11) expression [1] | FGF acidic expression [1] | FGF-21 expression [1] | FLt-3 Ligand expression [1] | Fetuin A/AHSG expression [1] | G-CSF expression [1] | GDF-15 expression [1] | GM-CSF expression [1] | Gas 6 expression [1] | HGF expression [1] | I-TAC (Cxcl11) expression [1] | IFN-y expression [1] | IGFBP-1 expression [1] | IGFBP-2 expression [1] | IGFBP-3 expression [1] | IGFBP-5 expression [1] | IGFBP-6 expression [1] | IL-1a (IL-1F1) expression [1] | IL-1ra (IL-1F3) expression [1] | IL-1β (IL-1F2) expression [1] | IL-2 expression [1] | IL-3 expression [1] | IL-4 expression [1] | IL-5 expression [1] | IL-6 expression [1] | IL-7 expression [1] | IL-10 expression [1] | IL-11 expression [1] | IL-12 p40 expression [1] | IL-13 expression [1] | IL-15 expression [1] | IL-17a expression [1] | IL-22 expression [1] | IL-23 expression [1] | IL-27 p28 expression [1] | IL-28A/B expression [1] | IL-33 expression [1] | IP-10 (CXL10/CRG-2) expression [1] | KC (CXCL1) expression [1] | LIF expression [1] | LIX expression [1] | Leptin expression [1] | Lipocalin-2/NGAL expression [1] | MCP-5 (CCL12) expression [1] | MIP-2 (CXCL2) expression [1] | MMP-9 expression [1] | Myeloperoxidase expression [1] | Osteopontin (OPN) expression [1] | Osteoprotegerin/TNFRSF11B expression [1] | P-Selectin/CD62P expression [1] | PD-EGF/Thymidine phosphorylase expression [1] | PDGF-BB expression [1] | Pentraxin 2/SAP expression [1] | Pentraxin 3/TSG-14 expression [1] | Periostin/OSF-2 expression [1] | Pref-1/DLK-1/FA1 expression [1] | Proliferin expression [1] | RAGE expression [1] | RBP4 expression [1] | Reg3G expression [1] | Resistin expression [1] | Serpin E1/PAI-1 expression [1] | Serpin F1/PEDF expression [1] | TNF-α expression [1] | WISP-1/CCN4 expression [1] | sICAM-1 (CD54) expression [1] | Adiponectin expression [2] | Amphiregulin expression [2] | Angiopoietin-1 expression [2] | Angiopoietin-2 expression [2] | Angiopoietin-like 3 expression [2] | BAFF/BLyS/TNFSF13B expression [2] | C1qR1/CD93 expression [2] | C-Reactive Protein/CRP expression [2] | CCL2/JE/MCP-1 expression [2] | CCL3/CCL4/MIP-1a/B expression [2] | CCL5/RANTES expression [2] | CCL6/C10 expression [2] | CCL17/TARC expression [2] | CCL19/MIP-3B expression [2] | CCL20/MIP-3a expression [2] | CCL21/6Ckine expression [2] | CCL22/MDC expression [2] | CD14 expression [2] | CD40/TNFRSF5 expression [2] | CD160 expression [2] | CX3CL1/Fractalkine expression [2] | CXCL9/MIG expression [2] | CXCL16 expression [2] | Chemerin expression [2] | Chitinase 3-like 1 expression [2] | Coagulation Factor III/Tissue Factor expression [2] | Complement Component C5/C5a expression [2] | Complement Factor D expression [2] | Cystatin C expression [2] | DKK-1 expression [2] | E-Selectin/CD62E expression [2] | Endoglin/CD105 expression [2] | Endostatin expression [2] | Eotaxin (CCL11) expression [2] | FGF acidic expression [2] | FGF-21 expression [2] | FLt-3 Ligand expression [2] | Fetuin A/AHSG expression [2] | GDF-15 expression [2] | GM-CSF expression [2] | Gas 6 expression [2] | I-TAC (Cxcl11) expression [2] | IGFBP-2 expression [2] | IGFBP-3 expression [2] | IGFBP-5 expression [2] | IGFBP-6 expression [2] | IL-1a (IL-1F1) expression [2] | IL-2 expression [2] | IL-3 expression [2] | IL-4 expression [2] | IL-5 expression [2] | IL-6 expression [2] | IL-7 expression [2] | IL-10 expression [2] | IL-11 expression [2] | IL-17a expression [2] | IL-22 expression [2] | IL-23 expression [2] | IL-27 p28 expression [2] | IP-10 (CXL10/CRG-2) expression [2] | KC (CXCL1) expression [2] | LIF expression [2] | Lipocalin-2/NGAL expression [2] | MCP-5 (CCL12) expression [2] | MIP-2 (CXCL2) expression [2] | MMP-3 expression [2] | MMP-9 expression [2] | Osteoprotegerin/TNFRSF11B expression [2] | PD-EGF/Thymidine phosphorylase expression [2] | Pentraxin 3/TSG-14 expression [2] | Periostin/OSF-2 expression [2] | Proprotein Convertase 9/PCSK9 expression [2] | RAGE expression [2] | Serpin F1/PEDF expression [2] | TIM-1/KIM-1/HAVCR expression [2] | Thrombopoeitin expression [2] | VEGF expression [2] | WISP-1/CCN4 expression [2]
6-10: IL-1β (IL-1F2) expression [2] | Pref-1/DLK-1/FA1 expression [2] | Proliferin expression [2] | Reg3G expression [2] | Serpin E1/PAI-1 expression [2] | VCAM-1/CD106 expression [2]
blunted or fully normalized: increased expression of cytokines in Dsg2^mut/mut hearts (in most, but not all, cases)
reduced: OPN expression [3]
2-4: CXCL13/BLC/BCA-1 expression [2] | IL-15 expression [2] | IL-33 expression [2] | Myeloperoxidase expression [2] | Resistin expression [2]
markedly reduced: LIX (CXCL5) level [3]
